ChEMBL document CHEMBL1201861, “Genomics of Drug Sensitity in Cancer screening data, Wellcome Trust Sanger Institute”

Legend:
COLO-741 = experiment: cells; assay type: functional, cell-based; settings: Homo sapiens
Description: SANGER: Inhibition of human COLO-741 cell growth in a cell viability assay.

DK-MG = experiment: cells; assay type: functional, cell-based; settings: Homo sapiens;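 note: growth inhibition of DK-MG cells, read out with a cell viability assay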
Description: SANGER: Inhibition of human DK-MG cell growth in a cell viability assay.

Daoy = experiment: cells; assay type: functional, cell-based; settings: Homo sapiens;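 note: daoy cell growth inhibition, read out as cell viability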
Description: SANGER: Inhibition of human Daoy cell growth in a cell viability assay.

G-402 = experiment: cells; assay type: functional, cell-based; settings: Homo sapiens
Description: SANGER: Inhibition of human G-402 cell growth in a cell viability assay.

HCC38 = experiment: cells; assay type: functional, cell-based; settings: Homo sapiens;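 note: cell viability assay on the human HCC38 cell line, with IC50 marking the concentration that inhibits cell growth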
Description: SANGER: Inhibition of human HCC38 cell growth in a cell viability assay.

HCC70 = experiment: cells; assay type: functional, cell-based; settings: Homo sapiens;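 note: cell viability assay measuring how strongly the compound suppresses proliferation of HCC70 cells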
Description: SANGER: Inhibition of human HCC70 cell growth in a cell viability assay.

HEC-1 = experiment: cells; assay type: functional, cell-based; settings: Homo sapiens;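 note: growth inhibition of the cell line, read out with a cell viability assay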
Description: SANGER: Inhibition of human HEC-1 cell growth in a cell viability assay.

HuCCT-1 = experiment: cells; assay type: functional, cell-based, HuCCT1; settings: Homo sapiens;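 note: growth inhibition of HuCCT-1 cells, read out by a cell viability assay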
Description: SANGER: Inhibition of human HuCCT1 cell growth in a cell viability assay.

IMR-5 = experiment: cells; assay type: functional, cell-based; settings: Homo sapiens;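 note: growth inhibition of human IMR-5 cells, read out with a cell viability assay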
Description: SANGER: Inhibition of human IMR-5 cell growth in a cell viability assay.

JIYOYE = experiment: cells; assay type: functional, cell-based; settings: Homo sapiens
Description: SANGER: Inhibition of human JiyoyeP-2003 cell growth in a cell viability assay.

KYSE-520 cell line = experiment: cells; assay type: functional, cell-based; settings: Homo sapiens;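 note: growth inhibition of human KYSE-520 cells, read out with a viability assay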
Description: SANGER: Inhibition of human KYSE-520 cell growth in a cell viability assay.

KYSE-70 cell line = experiment: cells; assay type: functional, cell-based; settings: Homo sapiens;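 note: cell viability assay read-out, with IC50 expressing suppression of KYSE-70 cell growth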
Description: SANGER: Inhibition of human KYSE-70 cell growth in a cell viability assay.

L-540 = experiment: cells; assay type: functional, cell-based; settings: Homo sapiens;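 note: growth inhibition of the human L-540 cell line, read out with a viability assay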
Description: SANGER: Inhibition of human L-540 cell growth in a cell viability assay.

LB647-SCLC = experiment: cells; assay type: functional, cell-based; settings: Homo sapiens;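 note: cell growth inhibition, read out by a viability assay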
Description: SANGER: Inhibition of human LB647-SCLC cell growth in a cell viability assay.

LCLC-103H cell line = experiment: cells; assay type: functional, cell-based; settings: Homo sapiens
Description: SANGER: Inhibition of human LCLC-103H cell growth in a cell viability assay.

LP-1 = experiment: cells; assay type: functional, cell-based; settings: Homo sapiens;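 note: growth inhibition of human LP-1 cells, with the read-out taken from a cell viability assay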
Description: SANGER: Inhibition of human LP-1 cell growth in a cell viability assay.

M14 = experiment: cells; assay type: functional, cell-based; settings: Homo sapiens;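 note: growth inhibition of M14 cells, read out with a cell viability assay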
Description: SANGER: Inhibition of human M14 cell growth in a cell viability assay.

MC-IXC = experiment: cells; assay type: functional, cell-based; settings: Homo sapiens;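 note: growth inhibition of MC-IXC cells, read out with a cell viability assay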
Description: SANGER: Inhibition of human MC-IXC cell growth in a cell viability assay.

MCF7 = experiment: cells; assay type: functional, cell-based; settings: Homo sapiens;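 note: growth inhibition of human MCF7 cells, read out with a cell viability assay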
Description: SANGER: Inhibition of human MCF7 cell growth in a cell viability assay.

MDA-MB-157 = experiment: cells; assay type: functional, cell-based; settings: Homo sapiens
Description: SANGER: Inhibition of human MDA-MB-157 cell growth in a cell viability assay.

MDA-MB-175-VII = experiment: cells; assay type: functional, cell-based; settings: Homo sapiens
MDA-MB-231 = experiment: cells; assay type: functional, cell-based; settings: Homo sapiens
Description: SANGER: Inhibition of human MDA-MB-231 cell growth in a cell viability assay.

MG-63 = experiment: cells; assay type: functional, cell-based; settings: Homo sapiens;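 note: growth inhibition of human MG-63 cells, read out with a cell viability assay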
Description: SANGER: Inhibition of human MG-63 cell growth in a cell viability assay.

MIA PaCa-2 = experiment: cells; assay type: functional, cell-based; settings: Homo sapiens;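 note: growth inhibition of MIA PaCa-2 cells, read out with a cell viability assay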
Description: SANGER: Inhibition of human MIA-PaCa-2 cell growth in a cell viability assay.

MKN-45 = experiment: cells; assay type: functional, cell-based; settings: Homo sapiens;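 note: growth inhibition of human MKN-45 cells, measured with a cell viability assay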
Description: SANGER: Inhibition of human MKN45 cell growth in a cell viability assay.

NALM-6 = experiment: cells; assay type: functional, cell-based; settings: Homo sapiens;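 note: growth inhibition of NALM-6 cells, read out with a cell viability assay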
Description: SANGER: Inhibition of human NALM-6 cell growth in a cell viability assay.

NCI-H1417 = experiment: cells; assay type: functional, cell-based; settings: Homo sapiens;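 note: human NCI-H1417 cells, growth inhibition determined with a cell viability readout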
Description: SANGER: Inhibition of human NCI-H1417 cell growth in a cell viability assay.

NCI-H1522 = experiment: cells; assay type: functional, cell-based; settings: Homo sapiens;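 note: growth inhibition of NCI-H1522 cells, read out with a cell viability assay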
Description: SANGER: Inhibition of human NCI-H1522 cell growth in a cell viability assay.

NCI-H2122 = experiment: cells; assay type: functional, cell-based; settings: Homo sapiens;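 note: growth inhibition of the cells, read out with a cell viability assay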
Description: SANGER: Inhibition of human NCI-H2122 cell growth in a cell viability assay.

NCI-H441 = experiment: cells; assay type: functional, cell-based; settings: Homo sapiens;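 note: growth inhibition of NCI-H441 cells, read out with a cell viability assay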
Description: SANGER: Inhibition of human NCI-H441 cell growth in a cell viability assay.

NCI-H522 = experiment: cells; assay type: functional, cell-based; settings: Homo sapiens;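 note: cell viability assay measuring growth inhibition of human NCI-H522 cells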
Description: SANGER: Inhibition of human NCI-H522 cell growth in a cell viability assay.

NCI-H64 = experiment: cells; assay type: functional, cell-based; settings: Homo sapiens;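 note: growth inhibition of NCI-H64 cells, read out with a cell viability assay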
Description: SANGER: Inhibition of human NCI-H64 cell growth in a cell viability assay.

NCI-H810 = experiment: cells; assay type: functional, cell-based; settings: Homo sapiens;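 note: IC50 reflects inhibition of cancer cell line growth, read out with a cell viability assay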
Description: SANGER: Inhibition of human NCI-H810 cell growth in a cell viability assay.

OAW-28 = experiment: cells; assay type: functional, cell-based; settings: Homo sapiens;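 note: growth inhibition of OAW-28 cells, read out with a cell viability assay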
Description: SANGER: Inhibition of human OAW-28 cell growth in a cell viability assay.

OVCAR-3 = experiment: cells; assay type: functional, cell-based; settings: Homo sapiens;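 note: growth inhibition of human OVCAR-3 cells, determined by a cell viability assay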
Description: SANGER: Inhibition of human OVCAR-3 cell growth in a cell viability assay.

OVCAR-8 = experiment: cells; assay type: functional, cell-based; settings: Homo sapiens;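 note: growth inhibition of human OVCAR-8 cells, read out by a cell viability assay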
Description: SANGER: Inhibition of human OVCAR-8 cell growth in a cell viability assay.

P12-Ichikawa = experiment: cells; assay type: functional, cell-based; settings: Homo sapiens
PC-3 = experiment: cells; assay type: functional, cell-based; settings: Homo sapiens;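 note: cell viability assay measuring growth inhibition of PC-3 cells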
Description: SANGER: Inhibition of human PC-3 cell growth in a cell viability assay.

PFSK-1 = experiment: cells; assay type: functional, cell-based; settings: Homo sapiens;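 note: cell viability assay measuring how strongly compounds suppress growth of human PFSK-1 cells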
Description: SANGER: Inhibition of human PFSK-1 cell growth in a cell viability assay.

RPMI-2650 = experiment: cells; assay type: functional, cell-based; settings: Homo sapiens
Description: SANGER: Inhibition of human RPMI-2650 cell growth in a cell viability assay.

RT-112 = experiment: cells; assay type: functional, cell-based; settings: Homo sapiens
Description: SANGER: Inhibition of human RT-112 cell growth in a cell viability assay.

RVH-421 = experiment: cells; assay type: functional, cell-based; settings: Homo sapiens
Description: SANGER: Inhibition of human RVH-421 cell growth in a cell viability assay.

S-117 = experiment: cells; assay type: functional, cell-based; settings: Homo sapiens
Description: SANGER: Inhibition of human S-117 cell growth in a cell viability assay.

SK-LU-1 = experiment: cells; assay type: functional, cell-based; settings: Homo sapiens;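 note: cell viability assay measuring growth inhibition of human SK-LU-1 cells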
Description: SANGER: Inhibition of human SK-LU-1 cell growth in a cell viability assay.

SK-MES-1 = experiment: cells; assay type: functional, cell-based; settings: Homo sapiens;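 note: growth inhibition of human SK-MES-1 cells, read out with a cell viability assay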
Description: SANGER: Inhibition of human SK-MES-1 cell growth in a cell viability assay.

SW1573 = experiment: cells; assay type: functional, cell-based; settings: Homo sapiens;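 note: growth inhibition of SW1573 cells, read out with a cell viability assay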
Description: SANGER: Inhibition of human SW1573 cell growth in a cell viability assay.

SW756 = experiment: cells; assay type: functional, cell-based; settings: Homo sapiens;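 note: growth inhibition of human SW756 cells, read out with a cell viability assay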
Description: SANGER: Inhibition of human SW756 cell growth in a cell viability assay.

SAOS-2 = experiment: cells; assay type: functional, cell-based; settings: Homo sapiens;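 note: growth inhibition of human Saos-2 cells determined by a cell viability assay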
Description: SANGER: Inhibition of human Saos-2 cell growth in a cell viability assay.

TCC-SUP = experiment: cells; assay type: functional, cell-based; settings: Homo sapiens;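 note: growth inhibition of TCC-SUP cells, read out with a cell viability assay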
Description: SANGER: Inhibition of human TCCSUP cell growth in a cell viability assay.

A204 = experiment: cells; assay type: functional, cell-based; settings: Homo sapiens;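 note: growth inhibition of human A204 cells, read out with a cell viability assay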
Description: SANGER: Inhibition of human A204 cell growth in a cell viability assay.

AN3-CA = experiment: cells; assay type: functional, cell-based; settings: Homo sapiens;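 note: growth inhibition of human AN3-CA cells measured by a cell viability assay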
Description: SANGER: Inhibition of human AN3-CA cell growth in a cell viability assay.

ASPC1 = experiment: cells; assay type: functional, cell-based; settings: Homo sapiens;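 note: growth inhibition of AsPC-1 cells, read out with a cell viability assay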
Description: SANGER: Inhibition of human AsPC-1 cell growth in a cell viability assay.

BL-70 = experiment: SANGER: Inhibition of human BL-70 cell growth in a cell viability assay.; assay type: functional, cell-based
C32 = experiment: cells; assay type: functional, cell-based; settings: Homo sapiens;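 note: cell viability assay, with IC50 reflecting inhibition of C32 cell growth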
Description: SANGER: Inhibition of human C32 cell growth in a cell viability assay.

CAKI-1 = experiment: cells; assay type: functional, cell-based; settings: Homo sapiens;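 note: growth inhibition of CAKI-1 cells, measured by a cell viability assay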
Description: SANGER: Inhibition of human CAKI-1 cell growth in a cell viability assay.

CAL-148 = experiment: cells; assay type: functional, cell-based; settings: Homo sapiens
Description: SANGER: Inhibition of human CAL-148 cell growth in a cell viability assay.

CAL-85-1 = experiment: cells; assay type: functional, cell-based; settings: Homo sapiens;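 note: growth inhibition of human CAL-85-1 cells, read out with a cell viability assay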
Description: SANGER: Inhibition of human CAL-85-1 cell growth in a cell viability assay.

UO-31 = experiment: cells; assay type: functional, cell-based; settings: Homo sapiens
Description: SANGER: Inhibition of human U031 cell growth in a cell viability assay.

UACC-62 = experiment: cells; assay type: functional, cell-based; settings: Homo sapiens;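 note: growth inhibition of human UACC-62 cells, read out by a cell viability assay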
Description: SANGER: Inhibition of human UACC-62 cell growth in a cell viability assay.

CAMA-1 = experiment: cells; assay type: functional, cell-based; settings: Homo sapiens;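 note: growth inhibition of CAMA-1 cells, read out with a cell viability assay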
Description: SANGER: Inhibition of human CAMA-1 cell growth in a cell viability assay.

CESS = experiment: SANGER: Inhibition of human CESS cell growth in a cell viability assay.; assay type: functional, cell-based
CHP-212 = experiment: cells; assay type: functional, cell-based; settings: Homo sapiens
Description: SANGER: Inhibition of human CHP-212 cell growth in a cell viability assay.

CMK = experiment: cells; assay type: functional, cell-based; settings: Homo sapiens;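 note: growth inhibition of CMK cells, read out as cell viability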
Description: SANGER: Inhibition of human CMK cell growth in a cell viability assay.

Structure (SMILES): CO[C@@]12[C@H](COC(N)=O)C3=C(C(=O)C(C)=C(N)C3=O)N1C[C@@H]1N[C@@H]12 [MITOMYCIN]
- IC50 (COLO-741): 2200 nM
- IC50 (DK-MG): > 16000 nM
- IC50 (Daoy): 88 nM
- IC50 (G-402): 85.9 nM
- IC50 (HCC38): 604 nM
- IC50 (HCC70): 694 nM
- IC50 (HEC-1): 698 nM
- IC50 (HuCCT-1): 904 nM
- IC50 (IMR-5): < 62.5 nM
- IC50 (JIYOYE): 630 nM
- IC50 (KYSE-520 cell line): 772 nM
- IC50 (KYSE-70 cell line): 224 nM
- IC50 (L-540): 95.1 nM
- IC50 (LB647-SCLC): 336 nM
- IC50 (LCLC-103H cell line): 461 nM
- IC50 (LP-1): 4560 nM
- IC50 (M14): 1340 nM
- IC50 (MC-IXC): < 62.5 nM
- IC50 (MCF7): < 62.5 nM
- IC50 (MDA-MB-157): 2190 nM
- IC50 (MDA-MB-175-VII): 3160 nM
- IC50 (MDA-MB-231): 3240 nM
- IC50 (MG-63): 226 nM
- IC50 (MIA PaCa-2): 275 nM
- IC50 (MKN-45): 165 nM
- IC50 (NALM-6): < 62.5 nM
- IC50 (NCI-H1417): 237 nM
- IC50 (NCI-H1522): 3240 nM
- IC50 (NCI-H2122): < 62.5 nM
- IC50 (NCI-H441): 17.6 nM
- IC50 (NCI-H522): 169 nM
- IC50 (NCI-H64): 1530 nM
- IC50 (NCI-H810): 252 nM
- IC50 (OAW-28): 441 nM
- IC50 (OVCAR-3): 1130 nM
- IC50 (OVCAR-8): 176 nM
- IC50 (P12-Ichikawa): < 62.5 nM
- IC50 (PC-3): 4070 nM
- IC50 (PFSK-1): 5880 nM
- IC50 (RPMI-2650): 196 nM
- IC50 (RT-112): 178 nM
- IC50 (RVH-421): 629 nM
- IC50 (S-117): 592 nM
- IC50 (SK-LU-1): < 62.5 nM
- IC50 (SK-MES-1): 51.1 nM
- IC50 (SW1573): 145 nM
- IC50 (SW756): 597 nM
- IC50 (SAOS-2): 1410 nM
- IC50 (TCC-SUP): 482 nM
- IC50 (A204): 84.2 nM
- IC50 (AN3-CA): 523 nM
- IC50 (ASPC1): 2900 nM
- IC50 (BL-70): 1280 nM
- IC50 (C32): 1530 nM
- IC50 (CAKI-1): 23.3 nM
- IC50 (CAL-148): 17.8 nM
- IC50 (CAL-85-1): 65.9 nM
- IC50 (UO-31): 366 nM
- IC50 (UACC-62): 2160 nM
- IC50 (CAMA-1): 541 nM
- IC50 (CESS): 225 nM
- IC50 (CHP-212): < 62.5 nM
- IC50 (CMK): < 62.5 nM

Structure (SMILES): CC(C)=CC[C@@H](O)C1=CC(=O)c2c(O)ccc(O)c2C1=O [SHIKONIN]
- IC50 (COLO-741): 2690 nM
- IC50 (DK-MG): 9820 nM
- IC50 (Daoy): 159 nM
- IC50 (G-402): 882 nM
- IC50 (HCC38): 787 nM
- IC50 (HCC70): 2010 nM
- IC50 (HEC-1): 1130 nM
- IC50 (HuCCT-1): 483 nM
- IC50 (IMR-5): 589 nM
- IC50 (JIYOYE): 1390 nM
- IC50 (KYSE-520 cell line): 598 nM
- IC50 (KYSE-70 cell line): 2420 nM
- IC50 (L-540): 4900 nM
- IC50 (LB647-SCLC): 233 nM
- IC50 (LCLC-103H cell line): 346 nM
- IC50 (LP-1): 686 nM
- IC50 (M14): 1490 nM
- IC50 (MC-IXC): 387 nM
- IC50 (MCF7): 435 nM
- IC50 (MDA-MB-157): 637 nM
- IC50 (MDA-MB-175-VII): 2050 nM
- IC50 (MDA-MB-231): 1020 nM
- IC50 (MG-63): 257 nM
- IC50 (MIA PaCa-2): 276 nM
- IC50 (MKN-45): 608 nM
- IC50 (NALM-6): < 62.5 nM
- IC50 (NCI-H1417): 816 nM
- IC50 (NCI-H1522): 519 nM
- IC50 (NCI-H2122): > 16000 nM
- IC50 (NCI-H441): 15800 nM
- IC50 (NCI-H522): 560 nM
- IC50 (NCI-H64): 547 nM
- IC50 (NCI-H810): 503 nM
- IC50 (OAW-28): 1200 nM
- IC50 (OVCAR-3): 383 nM
- IC50 (OVCAR-8): 460 nM
- IC50 (P12-Ichikawa): 1390 nM
- IC50 (PC-3): 859 nM
- IC50 (PFSK-1): > 16000 nM
- IC50 (RPMI-2650): 375 nM
- IC50 (RT-112): 70.4 nM
- IC50 (RVH-421): 1470 nM
- IC50 (S-117): 387 nM
- IC50 (SK-LU-1): 750 nM
- IC50 (SK-MES-1): 6290 nM
- IC50 (SW1573): 372 nM
- IC50 (SW756): 762 nM
- IC50 (SAOS-2): 2370 nM
- IC50 (TCC-SUP): 554 nM
- IC50 (A204): 127 nM
- IC50 (AN3-CA): 79.6 nM
- IC50 (ASPC1): 619 nM
- IC50 (BL-70): 278 nM
- IC50 (C32): 2680 nM
- IC50 (CAKI-1): 894 nM
- IC50 (CAL-148): 677 nM
- IC50 (CAL-85-1): 161 nM
- IC50 (UO-31): 771 nM
- IC50 (UACC-62): 1230 nM
- IC50 (CAMA-1): 1520 nM
- IC50 (CESS): 776 nM
- IC50 (CHP-212): 1100 nM
- IC50 (CMK): 352 nM
